Data from PMC8124774, “Tuning Anti-Biofilm Activity of Manganese(II) Complexes: Linking Biological Effectiveness of Heteroaromatic Complexes of Alcohol, Aldehyde, Ketone, and Carboxylic Acid with Structural Effects and Redox Activity” (International Journal of Molecular Sciences, 2021).

Assays:
[1] = system: primary human fibroblasts (VH10); assay: cytotoxicity, MTT test; format: cell-based; settings: VH10 cells, 24 h, 15–1000 µM
Protocol: Primary human fibroblasts (VH10) were cultured at 37 °C in a humidified 5% CO2 atmosphere in plastic dishes in Dulbecco’s modified eagle medium (DMEM) supplemented with 10% heat inactivated fetal calf serum, 2 mM of l-glutamine, and antibiotics (100 units/mL penicillin and 100 µg/mL streptomycin). Cytotoxic properties of manganese complexes were measured by EZcount^TM MTT cell assay kit (HiMedia Laboratories Pvt., Ltd., Mumbai, India) in accordance with the manufacturer’s instructions. Cells were seeded into a 96-well plate and incubated with manganese complexes in the concentration range of 15–1000 µM for 24 h at 37 °C in a humidified atmosphere of 5% CO2. After incubation, a solution of MTT (3-[4,5-dimethylthiazol-2-yl]-2, 5-diphenyl tetrazolium bromide) at a concentration (1 mg/mL) was added to each well. After incubation at 37 °C for 4 h, 100 µL of 0.04 M HCl in isopropanol was added to each well and mixed thoroughly to dissolve the dark blue crystals. The measurement of absorbance of the solution related to the number of live cells was conducted on a TECAN Spark Microplate Reader (TECAN, Männedorf, Switzerland) at 570 nm with a reference wavelength 600 nm. All samples were tested in three independent experiments. Results were normalized to the control.
Inhibitory concentrations (IC50) represent the concentrations of the tested samples required to inhibit 50% cell proliferation and were calculated from the mean values of data from wells.

[2] = system: P. aeruginosa PAO1 biofilm; assay: LIVE/DEAD fluorescence assay of biofilm (epifluorescence microscopy); format: cell-based, Pseudomonas aeruginosa; settings: 0.5 mM, 24 h
Protocol: The effect of the manganese complexes (the concentration of 0.5 mM) on the cell viability of P. aeruginosa in the biofilm layers using the LIVE/DEAD fluorescence assay was also assessed. The mixture of two fluorescent dyes, the dye SYTO-9, and the propidium iodide (included in the FilmTracer™ LIVE/DEAD Biofilm Viability Kit) was used to distinguish live and dead cells. The SYTO-9 can penetrate most membranes freely and is used for assessing total cell counts. In contrast, propidium iodide penetrates cells with compromised membranes, differentiating the damaged bacterial cells from a metabolic active, live cells. As a result, microorganisms with intact cell membranes stain fluorescent green, whereas microorganisms with damaged membranes stain fluorescent red. […] The presence of compounds in the culture caused the aggregation of cells into microcolonies, which was not observed in the control. This observation proves that bacteria were trying to protect themselves against the effect of the complexes tested.
Fluorescence microscopy was used to image live/dead cells in the P. aeruginosa PAO1 biofilm. First, the overnight culture of bacteria was diluted with fresh TSB medium (1:100). […]

[3] = target: T1, catalase from the bovine liver (Bos taurus, UniProt P00432); assay: catalase activity in the presence of the Mn(II) complexes (absorbance at 240 nm); format: biochemical; settings: 0.5 mM complex, vs catalase alone
T1 construct: The catalase from the bovine liver solution; purchased Sigma–Aldrich; host or cells: bovine liver
T1 sequence (P00432 2-527 limits assumed): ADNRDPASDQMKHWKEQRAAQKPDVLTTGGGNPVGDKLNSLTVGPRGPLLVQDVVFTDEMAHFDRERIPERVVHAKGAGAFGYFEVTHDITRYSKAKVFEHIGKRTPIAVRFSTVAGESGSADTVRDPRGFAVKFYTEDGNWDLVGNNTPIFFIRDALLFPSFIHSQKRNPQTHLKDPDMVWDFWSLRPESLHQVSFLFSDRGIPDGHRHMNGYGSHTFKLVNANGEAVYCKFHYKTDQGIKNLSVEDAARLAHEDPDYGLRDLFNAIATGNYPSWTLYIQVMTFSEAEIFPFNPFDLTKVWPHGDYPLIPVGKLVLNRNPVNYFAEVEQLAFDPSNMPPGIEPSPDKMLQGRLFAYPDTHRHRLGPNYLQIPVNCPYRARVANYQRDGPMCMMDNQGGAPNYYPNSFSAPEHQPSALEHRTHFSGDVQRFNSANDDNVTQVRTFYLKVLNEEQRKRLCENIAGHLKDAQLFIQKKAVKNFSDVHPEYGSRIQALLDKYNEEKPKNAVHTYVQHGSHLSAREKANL
Protocol: First, the complexes were incubated with the catalase in the presence of a phosphate buffer, and then hydrogen peroxide was added thereto. To study the effect of the manganese complexes on the activity of CAT, its performance, in the presence of similar concentrations of the Mn complexes (0.5 mM), was investigated. The percentage of absorbance reduction over time was recorded at 240 nm. The positive control was the catalase sample in the absence of the Mn(II) complex. Figure 12 illustrates the effect of the Mn(II) complexes on the catalase activity.
The effect of the manganese complexes on the activity of catalase (CAT) was determined using the spectrophotometric method. The decrease in absorbance due to hydrogen peroxide depletion was recorded at 240 nm by the V-780 UV-Vis/NIR spectrophotometer (Jasco, Easton, MD, USA). The tests were performed in a 50-mM potassium phosphate buffer (PBS) at 37 °C, pH = 7.0. The catalase from the bovine liver solution (Sigma–Aldrich, St. Louis, MO, USA, lyophilized powder, ≥10,000 units/mg protein) was prepared in the PBS buffer as an initial dilution of ~1000 units/mL at 37 °C. The hydrogen peroxide solution, approximately 0.03% (w/w), was prepared by dilution in the PBS buffer to achieve the absorbance close to 1 a.u, and the PBS was used as a blank. The manganese complexes were diluted in the PBS buffer to stock the concentration of 1 mM. The mixture of 500 µL of the hydrogen peroxide, 1 µL of the catalase (final 1U of catalase activity), and 500 µL of the manganese complexes, previously incubated in a water bath at 37 °C, was added to a quartz cuvette (10 mm, 1 mL), closed by a cover, and placed in the spectrophotometer. The absorbance readings were performed in 10-s intervals during the first minute of the incubation time at 37 °C. The results were presented as the dependence on the percentage of the absorbance reduction over time.

| Compound | IC50 [1] [µM] | effect on biofilm structure and cell viability (LIVE/DEAD images) [2] | Action on catalase activity [3] |
| --- | --- | --- | --- |
| Cc1[nH]cnc1C=O.Cc1[nH]cnc1C=O.O=[N+]([O-])[O-].O=[N+]([O-])[O-].[Mn+2] [Mn-imCHO-NO3] | > 1000 | damage to the bacterial cell walls | promote the catalase activity |
| O=[N+]([O-])[O-].O=[N+]([O-])[O-].OCc1ccccn1.OCc1ccccn1.[Mn+2] [Mn-pyOH-NO3] | 1000 | damage to the bacterial cell walls | promote the catalase activity |
